Measured values published in patent publication US20120022024A1, “ANTI-BACTERIAL COMPOSITIONS AND METHODS INCLUDING TARGETING VIRULENCE FACTORS OF STAPHYLOCOCCUS AUREUS” (priority 2009, published 2012).
Where two headings read alike, the source gives them in different places.

How the values were obtained:
S. aureus [1] = conditions: treated mice compared to a control group; cited from earlier work
[2] = test system: staphyloxanthin (STX) biosynthesis in S. aureus; assay: Staphyloxanthin biosynthesis inhibition assay; type: cell-based, Staphylococcus aureus; conditions: Staphylococcus aureus
Protocol: The question next arises: how potent are these compounds in inhibiting STX biosynthesis in S. aureus? We thus treated S. aureus bacteria with serially diluted compounds at 37° C. for 3 days, after which the STX pigment was extracted with methanol. Optical densities were measured at 450 nm and IC50 values for inhibition of pigment formation for each compound were calculated using a standard dose-response curve. The rank ordered IC50 values of the 38 compounds investigated are shown in Table 7 and dose-response curves of representative compounds are shown in FIG. 2.
The S. aureus strain used was the WT clinical isolate (Pig1) (4). S. aureus was cultured in THB (1 mL) in the presence of inhibitor compounds for 72 h, in duplicate. Cells were then centrifuged and washed twice with PBS. STX was extracted with MeOH and the O.D. was determined at 450 nm using a Perkin Elmer MBA 2000 (Norwalk, Conn.) spectrophotometer.

S. aureus [3] = conditions: non-pigmented S. aureus after treatment versus normally pigmented; cited from earlier work
S. aureus [4] = conditions: non-pigmented S. aureus after treatment versus normally pigmented; cited from earlier work; remark: listed apart in the source
[5] = biological target: S. aureus CrtM (dehydrosqualene synthase) (Staphylococcus aureus, UniProt A9JQL9); assay: CrtM enzyme inhibition assay
[6] = biological target: T1, human squalene synthase (hSQS) (Homo sapiens, UniProt P37268); assay: Human SQS enzyme inhibition assay; type: biochemical; conditions: for IC50: Table 8; for CrtM/hSQS selectivity: IC50(hSQS)/IC50(CrtM); for pIC50 (CrtM) − pIC50 (hSQS): experimental data; for relative CrtM/hSQS selectivity: selectivity of compound/selectivity of 1
T1 construct: a double truncated protein lacking residues 31 at the N-terminus and 46 at the C-terminus; six-histidine tag (pET-28a) (N); made in house; host or cells: E. coli BL21 (DE3) RP
T1 sequence (P37268 31-370 limits assumed): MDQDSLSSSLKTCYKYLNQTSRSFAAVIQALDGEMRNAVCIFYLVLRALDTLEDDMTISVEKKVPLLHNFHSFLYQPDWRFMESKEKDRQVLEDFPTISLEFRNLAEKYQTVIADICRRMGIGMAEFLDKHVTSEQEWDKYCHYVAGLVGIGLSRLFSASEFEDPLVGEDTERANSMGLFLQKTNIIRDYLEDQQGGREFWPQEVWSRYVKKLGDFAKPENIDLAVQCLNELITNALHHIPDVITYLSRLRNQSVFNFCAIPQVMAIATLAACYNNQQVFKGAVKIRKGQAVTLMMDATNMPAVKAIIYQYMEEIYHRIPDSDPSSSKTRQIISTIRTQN
Protocol: The corresponding amplified insert was initially cloned in the vector pGEMT® (Promega). Plasmid was digested with the endonucleases NdeI and BamHI, and the resulting fragment was cloned into the bacterial expression vector pET-28a to give pET28a-HsSQS which was used to transform E. coli BL21 (DE3) RP strain (Novagen) for overexpression.
Bacteria expressing the constructs were cultured in Luria-Bertani medium supplemented with kanamycin (30 μg/ml) and chloramphenicol (34 μg/ml) at 37° C., until the cells reached an OD of 0.4 at 600 nm, and were then induced at 37° C. for 4 h by incubation with 1 mM isopropyl-1-thio-β-D-galactopyranoside. Cells were harvested by centrifugation (10 min, 4000 rpm) and resuspended in 10 ml of lysis/elution buffer (20 mM […], pH 7.4, 10 mM CHAPS, 2 mM MgCl2, 10% glycerol, 10 mM—mercaptoethanol, 500 mM NaCl, 10 mM imidazole, and a protease inhibitor cocktail (Roche), disrupted by sonication, and centrifuged at 16,000 rpm for 30 min. The supernatant ([…]) was then applied to a HiTrap Nickel-Chelating HP column (Amersham Biosciences). Enzyme purification was performed according to the manufacturer's instructions using a Pharmacia FPLC system. Unbound protein was washed off with 50 mM imidazole, then the His6-HsSQS was eluted with 1M imidazole.
SQS activity was based on measuring the conversion of [3H]FPP to [3H]squalene. […] The region of the squalene band was scraped and immersed in Hydrofluor liquid scintillation fluid, and assayed for radioactivity. IC50 values were calculated from the hyperbolic plot of percent of inhibition versus inhibitor concentration, using GraphPad PRISM®.

[7] = 72 h, read-out: Staphyloxanthin IC50
[8] = read-out: CrtM enzyme experimental activity IC50, Table 5

Sequence of S. aureus CrtM (dehydrosqualene synthase) (A9JQL9 whole entry): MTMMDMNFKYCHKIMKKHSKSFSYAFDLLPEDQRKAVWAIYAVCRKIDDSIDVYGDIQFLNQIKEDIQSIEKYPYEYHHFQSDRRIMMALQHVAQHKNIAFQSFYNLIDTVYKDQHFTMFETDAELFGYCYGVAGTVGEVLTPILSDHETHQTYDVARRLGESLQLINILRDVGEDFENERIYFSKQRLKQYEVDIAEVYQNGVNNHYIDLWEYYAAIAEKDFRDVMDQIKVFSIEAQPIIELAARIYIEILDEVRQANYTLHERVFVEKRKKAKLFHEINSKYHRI

| Structure (SMILES) | IC50 ([2]; read-out: IC50(STX)) [µM] | IC50 [5] [µM] | also measured |
| --- | --- | --- | --- |
| O=P([O-])([O-])C(CCCc1cccc(Oc2ccccc2)c1)S(=O)(=O)[O-].[K+].[K+].[K+] (centres unmarked) [Compound 1, 1-Phosphono-4-(3-phenoxyphenyl)butylsulfonic acid tripotassium salt, reference compound] | 0.11 |  | bacterial counts in kidneys reduced / bacterial growth inhibited (S. aureus [1]): 98%; IC50 [2, 7]: 0.11 µM; IC50 ([2]; read-out: IC50 (STX)): 0.11 µM; IC50 ([2]; read-out: IC50 for STX biosynthesis): 0.11 µM; survival in freshly isolated human whole blood (S. aureus [3]): less able to survive in freshly isolated human whole blood; susceptibility to killing by hydrogen peroxide (S. aureus [4]): much more susceptible to killing by hydrogen peroxide; IC50 ([5]; read-out: IC50 against CrtM): 7.9 µM |
| O=P([O-])([O-])C(CCCc1ccc(-c2ccc(C(F)(F)F)cc2)cc1)P(=O)([O-])[O-].[K+].[K+].[K+].[K+] [Compound 3, 4-[4-(4-Trifluoromethylphenyl)phenyl)]butyldiphosphonic acid dipotassium salt] |  |  | IC50 [2, 7]: 1.1 µM; IC50 [6]: 0.003 µM; Ki [5]: ~0.0005 µM; IC50 [5, 8]: 0.18 µM; IC50 ([5]; read-out: IC50 against CrtM): 0.2 µM |
| O=P([O-])([O-])C(CCCc1ccc(-c2ccc(C(F)(F)F)cc2)cc1)P(=O)([O-])[O-].[K+].[K+].[K+].[K+] [Compound 3] |  |  | CrtM/hSQS selectivity [6]: 0.014; pIC50 (CrtM) − pIC50 (hSQS) [6]: −1.86; relative CrtM/hSQS selectivity [6]: 4.8; CrtM enzyme experimental activity pIC50 ([5]; Table 5): 6.74 |
| CP(=O)([O-])C(CCCc1ccc(-c2ccccc2)cc1)P(=O)([O-])[O-].[K+].[K+].[K+] (centres unmarked) [Compound 4] |  |  | CrtM/hSQS selectivity [6]: 0.014; relative CrtM/hSQS selectivity [6]: 4.7 |
| O=P([O-])([O-])C(Cc1cccc(Oc2ccccc2)c1)S(=O)(=O)[O-].[K+].[K+].[K+] (centres unmarked) [Compound 14, 1-Phosphono-2-(3-phenoxyphenyl)ethylsulfonic acid tripotassium salt] |  |  | IC50 [2, 7]: 33.9 µM; CrtM/hSQS selectivity [6]: 0.0022; IC50 [6]: 3.7 µM; pIC50 (CrtM) − pIC50 (hSQS) [6]: −2.66; relative CrtM/hSQS selectivity [6]: 0.8; IC50 [5, 8]: 1700 µM |
| O=P([O-])([O-])C(CCc1cccc(Oc2ccccc2)c1)S(=O)(=O)[O-].[K+].[K+].[K+] (centres unmarked) [Compound 15, 1-Phosphono-3-(3-phenoxyphenyl)propylsulfonic acid tripotassium salt] |  | > 500 | IC50 [2, 7]: 20.4 µM; CrtM/hSQS selectivity [6]: 0.0011; IC50 [6]: 0.55 µM; pIC50 (CrtM) − pIC50 (hSQS) [6]: −2.96; relative CrtM/hSQS selectivity [6]: 0.4; CrtM enzyme experimental activity pIC50 ([5]; Table 5): 3.3; IC50 [5, 8]: 500 µM |
| O=C(CP(=O)(O)O)N(O)CCCc1cccc(Oc2ccccc2)c1 [compound 808] | 0.108 | 67.5 | IC50 ([2]; read-out: IC50(STX), cell activity): 0.11 µM |
| O=C(NO)C(CCCc1cccc(Oc2ccccc2)c1)P(=O)(O)O (centres unmarked) [compound 809] | 4.23 | 859 |  |
| O=C(CP(=O)(O)O)N(O)Cc1cccc(-c2cccc(-c3ccccc3)c2)c1 [compound 810] | 158 | 597 |  |
| Cc1ccc(-c2ccc(CCCN(O)C(=O)CP(=O)(O)O)cc2)cc1 [compound 826] | 4.11 | > 1500 |  |
| O=C(CP(=O)(O)O)NCCCc1cccc(Oc2ccccc2)c1 [compound 830] | 0.008 | 8.9 |  |
| O=C(CCCCc1ccc(Oc2ccccc2)cc1)CP(=O)(O)O [compound 839] | 28 | 1520 |  |
| O=P(O)(O)CS(=O)(=O)NCCCc1cccc(Oc2ccccc2)c1 [compound 841] | > 500 | 1640 |  |
| CC(C)(C(=O)NCCCc1cccc(Oc2ccccc2)c1)P(=O)(O)O [compound 847] | > 500 | 204 |  |
| CN(CCCc1cccc(Oc2ccccc2)c1)C(=O)CP(=O)(O)O [compound 848] | 8.6 | 193 |  |
| O=C(CS(=O)(=O)O)NCCCc1cccc(Oc2ccccc2)c1 [compound 884] | 15 | 171 |  |
| O=P(O)(O)CP(=O)(O)CCCCc1cccc(Oc2ccccc2)c1 [compound 885] | 0.44 | 45 |  |
| O=C(CP(=O)(O)O)NCCCc1cccc(Oc2ccc(Cl)c(Cl)c2)c1 [compound 886] | 0.04 | 7 |  |
| O=C(CP(=O)(O)O)OCCCc1cccc(Oc2ccccc2)c1 [compound 887] | 1.5 | 1190 |  |
| O=C(CP(=O)(O)O)NCCc1cccc(Oc2ccccc2)c1 [compound 897] | 3 | 323 |  |
| O=C(CP(=O)(O)O)NCCCCc1cccc(Oc2ccccc2)c1 [compound 898] | 35 | 1080 |  |
| O=C(CP(=O)(O)O)NCCCc1cccc(Oc2ccc(Cl)cc2)c1 [compound 926] | 0.028 | 15.3 |  |
| O=C(CP(=O)(O)O)N(O)CCCc1cccc(Oc2ccc(Cl)c(Cl)c2)c1 [compound 927] | 0.042 | 67.2 |  |
